Columns and labels:
Assay type in all cases: cell-based
human CCR6 [1] = target: T1, human CCR6 (Homo sapiens, UniProt P51684); assay: Human CCR6-CRE reporter assay; set-up: The second construct contained the open reading frame of human CCR6 in the pUNO1 backbone; host or cells: 293FT cells (transient transfection with TransIT-293)
T1 sequence (P51684 1-374): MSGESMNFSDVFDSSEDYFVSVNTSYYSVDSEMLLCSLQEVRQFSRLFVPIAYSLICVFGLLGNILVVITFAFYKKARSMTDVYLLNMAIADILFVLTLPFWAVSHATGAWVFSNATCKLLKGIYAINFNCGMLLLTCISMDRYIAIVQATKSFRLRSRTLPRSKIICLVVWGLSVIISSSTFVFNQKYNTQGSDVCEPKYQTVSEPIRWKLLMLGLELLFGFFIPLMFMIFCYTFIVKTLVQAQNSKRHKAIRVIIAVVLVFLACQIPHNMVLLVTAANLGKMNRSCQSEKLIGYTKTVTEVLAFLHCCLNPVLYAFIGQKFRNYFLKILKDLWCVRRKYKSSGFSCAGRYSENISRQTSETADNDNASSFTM
Method: 293FT cells were transfected with 2 constructs using TransIT-293 (Mirus). The first construct (pGL4.29, Promega) expressed the luciferase reporter gene luc2P in response to the binding of cAMP-induced CREB to the CREelement in its promoter. The second construct contained the open reading frame of human CCR6 in the pUNO1 backbone under the control of an enhanced CMV promoter(InVivoGen).48 h after transfection, cells were harvested and diluted to 750,000 cells/ml in culture medium (DMEM, 10% FBS, 1× pen/strep(Gibco 15140)). Compounds were 2.5-fold serially diluted in DMSO. Further dilutions were made in assay medium (DMEM, 10% FBS, 1× pen/strep, 6 μM Forskolin, 6 nM CCL20). 4 μl of the compound solution was added to a white MW384 plate, followed by […] of the cell suspension. Final DMSO concentration in the assay was 0.1%. The MW384 plate was placed in an incubator at 37° C., 5% CO2 for 5 h. Luciferase activity was determined by addition of 24 μl of a 2.5× diluted BriteLite luciferase solution(Perkin Elmer), followed by luminescence measurement using a VICTOR Plate reader (Perkin Elmer). […] The relative Log IC50 was determined with GraphPad Prism 9 using a four-parameter dose-response model.

human CCR6 [2] = target: T1, human CCR6; assay: CHO-K1 CCR6 chemotaxis assay towards CCL20; settings: CHO-K1 cells overexpressing human CCR6; 100 ng/ml CCL20, 4 h; relative Log IC50
Excerpt: Cells overexpressing human CCR6 were used in the chemotaxis assay (DiscoverX, cAMP Hunter™ CHO-K1 CCR6 Gi Cell Line). Growth medium of these cells consisted of DMEM/F12, non-essential Amino acids (1×NEAA, Gibco 11140050), 10% FBS and 1× pen/strep (Gibco 15140). For the chemotaxis assay, Corning Transwell plates were used with a pore size of 8 m (Corning 351164). Cells were harvested using trypsin and diluted to 4*10^6 cells/ml in chemotaxis medium (DMEM, 0.25% BSA, pen/strep). Compounds were four-fold serially diluted in DMSO. Further dilutions were made in chemotaxis medium. Cells were incubated with test compounds for 30 min at 37° C. prior to initiation of the assay (2*10^6 cells/ml). Final DMSO concentration in the assay was 0.2%. Wells of the Transwell plates were filled with 200 μl chemotaxis medium containing 100 ng/ml CCL20 (R&D systems 360-MP). 50 μl of the cell/compound suspension was added to the inserts of the Transwell plates (100,000 cells/insert). The Transwell plates were placed in an incubator at 37° C., 5% CO2 for 4 h. After 4 h, the number of migrated cells was quantified using CellTiter Glo (Promega). Percentage inhibition values were calculated based on the low and high signal obtained with 0.2% DMSO in chemotaxis medium without and with CCL20, respectively. The relative Log IC50 was determined with GraphPad Prism 9 using a four-parameter dose-response model.

Human CD4+ T cells = assay: CD4+ T cells chemotaxis assay towards CCL20; settings: CD4+ T cell, 3 h
Excerpt: Human CD4+ T cells were isolated from buffy coats of healthy donors using aCD4+ T Cell Isolation Kit(Miltenyi Biotec 130-096-533). Isolated T cells were stimulated overnight with anti-CD3 and anti-CD28 antibodies (Biolegend 300314/302934) in growth medium (RPMI1640, 10% heat-inactivated FBS, 1× pen/strep (Gibco 15140)). For the chemotaxis assay, Corning Transwell plates were used with a pore size of 5 m (Corning 3388). T cells were counted and diluted to 6*10^6 cells/ml in chemotaxis medium (RPMI1640, 1% BSA, pen/strep). Compounds were four-fold serially diluted in DMSO. Further dilutions were made in chemotaxis medium. Cells were incubated with test compounds for 30 min at 37° C. prior to initiation of the assay (3*10^6 cells/ml). Final DMSO concentration in the assay was 0.2%. Wells of the Transwell plates were filled with 200 μl chemotaxis medium containing 150 ng/ml CCL20 (R&D systems 360-MP). 50 μl of the cell/compound suspension was added to the inserts of the Transwell plates (150,000 cells/insert). The Transwell plates were placed in an incubator at 37° C., 5% CO2 for 3 h. After 3 h, the number of migrated cells was quantified using CellTiter Glo (Promega). Percentage inhibition values were calculated based on the low and high signal obtained with 0.2% DMSO in chemotaxis medium without and with CCL20, respectively. The relative Log IC50 was determined with GraphPad Prism 9 using a four-parameter dose-response model.

[3] = 293FT cells transfected with human CCR6 and CRE-luciferase, Forskolin + CCL20, 5 h, relative Log IC50, read-out: CCR6-CRE reporter (converted)

| Compound | IC50 (human CCR6 [1]; [3]) [nM] | IC50 (human CCR6 [2]) [nM] | IC50 (Human CD4+ T cells) [nM] | IC50 (human CCR6 [1]; scaffold variant X = S, R1 = CF3, read-out: Activity in human CCR6-CRE reporter assay) [nM] |
| --- | --- | --- | --- | --- |
| Cc1cc(-c2ccc(S(=O)(=O)N3CCC(Nc4ccc(OC(F)(F)F)cn4)CC3)cc2)cn2c(C(C)C)cnc12 [Example 55, N-(1-{4-[8-methyl-3-(propan-2-yl)imidazo[1,2-a]pyridin-6-yl]benzenesulfonyl}piperidin-4-yl)-5-(trifluoromethoxy)pyridin-2-amine] | 79.4 | 2 |  |  |
| O=c1[nH]nc2ccc(-c3ccc(S(=O)(=O)N4CCC(Nc5ccc(OC(F)(F)F)cn5)CC4)cc3)cn12 [Example 24, 6-{4-[(4-{[5-(trifluoromethoxy)pyridin-2-yl]Amino}piperidin-1-yl)sulfonyl]phenyl}-2H,3H-[1,2,4]triazolo[4,3-a]pyridin-3-one] | 79.4 | 31.6 |  |  |
| O=c1[nH]nc2ccc(-c3ccc(S(=O)(=O)N4CCC(Nc5ccc(OC(F)(F)F)cc5)CC4)cc3)cn12 [Example 23, 6-{4-[(4-{[4-(trifluoromethoxy)phenyl]Amino}piperidin-1-yl)sulfonyl]phenyl}-2H,3H-[1,2,4]triazolo[4,3-a]pyridin-3-one] |  | 39.8 |  |  |
| O=S(=O)(c1ccc(-c2ccc3nccn3c2)cc1)[C@H]1CC[C@H](Nc2ccc(OC(F)(F)F)cc2)CC1 [Example 43, N-[trans-4-(4-{imidazo[1,2-a]pyridin-6-yl}benzenesulfonyl)cyclohexyl]-4-(trifluoromethoxy)aniline] | 79.4 | 79.4 |  |  |
| O=S(=O)(c1ccc(-c2ccc3nccn3c2)cc1)[C@H]1CC[C@H](Nc2cccc(SC(F)(F)F)c2)CC1 [Example 46, N-[trans-4-(4-{imidazo[1,2-a]pyridin-6-yl}benzenesulfonyl)cyclohexyl]-3-[(trifluoromethyl)sulfanyl]aniline] | 63.1 | 794 |  |  |
| N#Cc1c[nH]c2ccc(-c3ccc(S(=O)(=O)[C@H]4CC[C@H](Nc5ccc(SC(F)(F)F)cc5)CC4)cc3)cc12 [Example 44, 5-(4-{[trans-4-({4-[(trifluoromethyl)sulfanyl]phenyl}Amino)cyclohexyl]sulfonyl}phenyl)-1H-indole-3-carbonitrile] | 20 | 6.31 |  |  |
| Cc1cc(-c2ccc(S(=O)(=O)N3CCC(Nc4ccc(SC(F)(F)F)cc4)CC3)cc2)cn2c(C(C)C)cnc12 [Example 33, 1-{4-[8-methyl-3-(propan-2-yl)imidazo[1,2-a]pyridin-6-yl]benzenesulfonyl}-N-{4-[(trifluoromethyl)sulfanyl]phenyl}piperidin-4-amine] | 100 | 20 |  |  |
| CC(C)c1nnc2cnc(-c3ccc(S(=O)(=O)N4CCC(Nc5ccc(OC(F)(F)F)cn5)CC4)cc3)cn12 [Example 59, N-(1-{4-[3-(propan-2-yl)-[1,2,4]triazolo[4,3-a]pyrazin-6-yl]benzenesulfonyl}piperidin-4-yl)-5-(trifluoromethoxy)pyridin-2-amine] | 63.1 | 7.94 |  |  |

Now from value to compound:

| IC50 (human CCR6 [1]; [3]) [nM] | IC50 (human CCR6 [2]) [nM] | IC50 (Human CD4+ T cells) [nM] | IC50 (human CCR6 [1]; scaffold variant X = S, R1 = CF3, read-out: Activity in human CCR6-CRE reporter assay) [nM] | Compound |
| --- | --- | --- | --- | --- |
| 39.8 |  | 50.1 |  | N#Cc1ccc(-c2ccc(S(=O)(=O)N3CCC(Nc4ccc(OC(F)(F)F)cc4)CC3)cc2)cc1 [Example 1, 4′-[(4-{[4-(trifluoromethoxy)phenyl]Amino}piperidin-1-yl)sulfonyl]-[1,1′-biphenyl]-4-carbonitrile] |
|  | 10 |  |  | N#Cc1c[nH]c2ccc(-c3ccc(S(=O)(=O)N4CCC(Nc5ccc(OC(F)(F)F)cn5)CC4)cc3)cc12 [Example 15, 5-{4-[(4-{[5-(trifluoromethoxy)pyridin-2-yl]Amino}piperidin-1-yl)sulfonyl]phenyl}-1H-indole-3-carbonitrile] |
|  | 15.8 |  | 74 | NC(=O)c1cc(-c2ccc(S(=O)(=O)N3CCC(Nc4ccc(SC(F)(F)F)cn4)CC3)cc2)ccn1 [Example 63, 4-(4-{[4-({5-[(trifluoromethyl)sulfanyl]pyridin-2-yl}amino)piperidin-1-yl]sulfonyl}phenyl)pyridine-2-carboxamide] |
|  | 126 |  |  | N#Cc1c[nH]c2ccc(-c3ccc(S(=O)(=O)N4CCC(Nc5ccc(OC(F)F)cc5)CC4)cc3)cc12 [Example 29, 5-{4-[(4-{[4-(difluoromethoxy)phenyl]Amino}piperidin-1-yl)sulfonyl]phenyl}-1H-indole-3-carbonitrile] |
| 158 | 63.1 |  |  | Cc1cnc2ccc(-c3ccc(S(=O)(=O)[C@H]4CC[C@H](Nc5ccc(OC(F)(F)F)cc5)CC4)cc3)cn12 [Example 41, N-[trans-4-(4-{3-methylimidazo[1,2-a]pyridin-6-yl}benzenesulfonyl)cyclohexyl]-4-(trifluoromethoxy)aniline] |
| 63.1 | 20 |  |  | N#Cc1n[nH]c2ccc(-c3ccc(S(=O)(=O)N4CCC(Nc5ccc(OC(F)(F)F)cc5)CC4)cc3)cc12 [Example 14, 5-{4-[(4-{[4-(trifluoromethoxy)phenyl]Amino}piperidin-1-yl)sulfonyl]phenyl}-1H-indazole-3-carbonitrile] |
| 79.4 | 794 |  |  | CC(C)c1cnc2ccc(-c3ccc(S(=N)(=O)[C@H]4CC[C@H](Nc5ccc(SC(F)(F)F)cc5)CC4)cc3)cn12 (stereo partly drawn) [Example 51, {4-[3-(propan-2-yl)imidazo[1,2-a]pyridin-6-yl]phenyl}[trans-4-({4-[(trifluoromethyl)sulfanyl]phenyl}Amino)cyclohexyl](imino)-λ^6-sulfanone] |
| 39.8 | 7.94 |  |  | Cc1cc(-c2ccc(S(=O)(=O)N3CCC(Nc4ccc(OC(F)(F)F)cn4)CC3)cc2)cn2c(C(C)C)nnc12 [Example 57, N-(1-{4-[8-methyl-3-(propan-2-yl)-[1,2,4]triazolo[4,3-a]pyridin-6-yl]benzenesulfonyl}piperidin-4-yl)-5-(trifluoromethoxy)pyridin-2-amine] |
| 158 | 79.4 |  |  | Cc1cnc2ccc(-c3ccc(S(=O)(=O)[C@H]4CC[C@H](Nc5ccc(OC(F)(F)F)cn5)CC4)cc3)cn12 [Example 42, N-[trans-4-(4-{3-methylimidazo[1,2-a]pyridin-6-yl}benzenesulfonyl)cyclohexyl]-5-(trifluoromethoxy)pyridin-2-amine] |

Source: patent publication US20250353859A1, “COMPOUNDS AS CCR6 INHIBITORS” (Hoffmann-La Roche Inc., priority 2023, published 2025)
